Measurements taken from patent publication US8772500B2, “TRPV3 modulators” (AbbVie Inc., priority 2011, dated 2014).

Assays:
human TRPV3 = molecular target: T1, human TRPV3 (Homo sapiens, UniProt Q8NET8); assay: In vitro antagonism of recombinant human TRPV3 activation (FLIPR Tetra calcium assay, 2-APB as agonist); type: cell-based; details: HEK293 cells stably expressing human TRPV3; 2-APB 80 μM; range class; read-out: IC50 (reported range)
T1 construct: expressed in transfected cells
T1 sequence (Q8NET8 1-790): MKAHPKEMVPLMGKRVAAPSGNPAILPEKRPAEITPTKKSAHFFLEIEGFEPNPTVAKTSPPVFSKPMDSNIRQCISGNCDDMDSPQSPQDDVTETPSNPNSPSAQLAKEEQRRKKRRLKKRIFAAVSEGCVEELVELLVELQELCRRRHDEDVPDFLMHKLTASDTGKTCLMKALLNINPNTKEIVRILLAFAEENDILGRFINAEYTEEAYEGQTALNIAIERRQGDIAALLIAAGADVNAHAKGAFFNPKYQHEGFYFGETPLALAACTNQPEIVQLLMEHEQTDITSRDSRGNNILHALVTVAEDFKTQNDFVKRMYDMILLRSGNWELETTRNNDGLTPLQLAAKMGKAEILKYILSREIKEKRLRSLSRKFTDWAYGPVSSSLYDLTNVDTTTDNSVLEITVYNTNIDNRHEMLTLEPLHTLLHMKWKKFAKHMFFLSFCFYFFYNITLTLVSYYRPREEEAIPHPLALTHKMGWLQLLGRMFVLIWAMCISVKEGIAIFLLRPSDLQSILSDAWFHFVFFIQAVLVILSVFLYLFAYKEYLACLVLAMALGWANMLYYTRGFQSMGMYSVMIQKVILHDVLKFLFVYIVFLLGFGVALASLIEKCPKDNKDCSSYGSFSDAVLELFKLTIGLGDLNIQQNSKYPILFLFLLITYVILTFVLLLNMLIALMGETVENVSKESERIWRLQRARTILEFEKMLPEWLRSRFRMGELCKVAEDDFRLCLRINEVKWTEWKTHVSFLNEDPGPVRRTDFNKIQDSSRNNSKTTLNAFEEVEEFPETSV
In short: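 HEK293 cells stably expressing human TRPV3, loaded with Calcium-4 dye for 90-120 min; compound added 3 min before 2-APB at 80 μM (its EC80). Fluorescence (max minus min) over 10 min expressed as % of maximal 2-APB response without antagonist; IC50 mostly averaged from n≧2 runs.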

[1] = In vitro human microsomal stability assay; type: in vitro ADME; details: human, 0.5 h, 0.5 μM, pH 7.4
In short: (§1)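 Metabolic stability was measured in liver microsomes from Sprague-Dawley rat or from human. Incubations ran at 37 °C with NADPH as cofactor, and NADPH was also added to the time-zero samples.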

[2] = In vitro rat microsomal stability assay; type: in vitro ADME, rat (Sprague-Dawley); details: Sprague-Dawley, rat, 0.5 h, 0.5 μM, pH 7.4
In short: as §1

SMILES	IC50 (human TRPV3) [nM]	HUMAN MICROSOMAL STABILITY (% REMAINING AFTER 30 MINUTES) [1] [%]	RAT MICROSOMAL STABILITY (% REMAINING AFTER 30 MINUTES) [2] [%]
NC1CCCC1C(O)C1(c2ccc(C(F)(F)F)cc2)CCC1 (stereo not drawn) [Example 205, (2-aminocyclopentyl){1-[4-(trifluoromethyl)phenyl]cyclobutyl}methanol]	1100 to 5000	>85	>85
NC1CCCC1C(O)C1(c2ccc(OC(F)(F)F)cc2)CCC1 (stereo not drawn) [Example 206, (2-aminocyclopentyl){1-[4-(trifluoromethoxy)phenyl]cyclobutyl}methanol]	1100 to 5000	83	62
NC1CCCCC1C(O)C1(c2cccc(C(F)(F)F)c2)CCC1 (stereo not drawn) [Example 212, (2-aminocyclohexyl){1-[3-(trifluoromethyl)phenyl]cyclobutyl}methanol]	1100 to 5000	>85	3.9
NC1CCC1C(O)C1(c2cccc(C(F)(F)F)c2)CCC1 (stereo not drawn) [Example 213, (2-aminocyclobutyl){1-[3-(trifluoromethyl)phenyl]cyclobutyl}methanol]	1100 to 5000	>85	72
N[C@@H]1CCC[C@@H]1[C@@H](O)C1(c2ccc(Cl)c(Cl)c2)CCC1 [Example 216, (R)-[(1S,2R)-2-aminocyclopentyl][1-(3,4-dichlorophenyl)cyclobutyl]-methanol]	1100 to 5000	>85	41
N[C@H]1CCC[C@H]1[C@H](O)C1(c2ccc(Cl)c(Cl)c2)CCC1 [Example 217, (S)-[(1R,2S)-2-aminocyclopentyl][1-(3,4-dichlorophenyl)cyclobutyl]-methanol]	1100 to 5000	73	68
N[C@@H]1CCC[C@H]1[C@@H](O)C1(c2ccc(Cl)c(Cl)c2)CCC1 [Example 220, (R)-[(1R,2R)-2-aminocyclopentyl][1-(3,4-dichlorophenyl)cyclobutyl]-methanol]	501 to 1000	>85	67
N[C@@H]1CCC[C@@H]1[C@@H](O)C1(c2ccc(OC(F)(F)F)cc2)CCC1 [Example 221, (R)-[(1S,2R)-2-aminocyclopentyl]{1-[4-(trifluoromethoxy)phenyl]-cyclobutyl}methanol]	1100 to 5000	83	56
N[C@H]1CCC[C@@H]1[C@H](O)C1(c2ccc(OC(F)(F)F)cc2)CCC1 [Example 222, (S)-[(1S,2S)-2-aminocyclopentyl]{1-[4-(trifluoromethoxy)phenyl]-cyclobutyl}methanol]	1100 to 5000	>85	59
N[C@@H]1CCC[C@H]1[C@@H](O)C1(c2ccc(OC(F)(F)F)cc2)CCC1 [Example 223, (R)-[(1R,2R)-2-aminocyclopentyl]{1-[4-(trifluoromethoxy)phenyl]-cyclobutyl}methanol]	1100 to 5000	>85	65
N[C@@H]1CCC[C@H]1[C@@H](O)C1(c2ccc(Cl)cc2)CCC1 [Example 224, (R)-[(1R,2R)-2-aminocyclopentyl][1-(4-chlorophenyl)cyclobutyl]methanol]	1100 to 5000	>85	70
N[C@H]1CCC[C@@H]1[C@H](O)C1(c2ccc(Cl)cc2)CCC1 [Example 225, (S)-[(1S,2S)-2-aminocyclopentyl][1-(4-chlorophenyl)cyclobutyl]methanol]	1100 to 5000	>85	34
N[C@H]1CCC[C@H]1[C@@H](O)C1(c2ccccc2F)CCC1 [Example 226, (R)-[(1R,2S)-2-aminocyclopentyl][1-(2-fluorophenyl)cyclobutyl]methanol]	501 to 1000	>85	<0.01
